The values that follow come from patent publication US9067937B2 (priority 2012, dated 2015).

Counter-ions that a name gives are not always drawn.

The target of one experiment is MELK (Homo sapiens, UniProt Q14680). Kind of experiment: Kinase assay (IMAP fluorescence polarization, FITC-labeled histone H3 peptide). The class given is biochemical. The note with it: 50 micro-M ATP. On the procedure: MELK activity was determined in the presence or absence of compounds using fluorescein isothiocyanate-labeled (FITC-labeled) histone H3 peptide as a substrate. […] The serially diluted compounds, 0.8 ng/micro-L […] (Carna Biosciences) and 100 nM FITC-labeled histone H3 peptide were reacted in a reaction buffer (20 mM HEPES, 0.01% Tween-20, 0.3 mM MgCl2, 2 mM dithiothreitol, 50 micro-M ATP, pH 7.4) at room temperature for 1 hour. The reaction was stopped by the addition of three fold assay volume of progressive binding solution. […] IC50 values were calculated by nonlinear four parameter fit using SigmaPlot, version 10.0 (Systat Software, Inc.).

A further experiment relates to 22Rv1 cells. Briefly: Cell-based assay, anti-proliferative activity (Cell Counting Kit-8, 72 hours). The note with it: Homo sapiens, 22Rv1, 72 h, read-out: IC50 (μM) (22Rvl). On the set-up: species or system human. On the procedure:
(§1) Active candidate inhibitors against MELK were evaluated for their target-specific cytotoxicity using 22Rv1, T47D, A549, DU4475 and HT-1197 cells was used for negative control. 100 micro-L of cell suspension was seeded onto 96-well microtiter plate (ViewPlate-96FTC, PerkinElmer). The initial cell concentration of 22Rv1, T47D, A549, DU4475, and HT1197 were 3,000 cells/well, 2,000 cells/well and 2,500 cells/well, respectively. Cellular growth was determined using Cell Counting Kit-8 (DOJINDO) at 72 hours after the exposure of the candidate inhibitors. […] Accurate IC50 values were calculated as described previously.

A further experiment relates to A549 cells. The description is as above. The arrangement: species or system human. The note with it: Homo sapiens, A549, 72 h, read-out: IC50 (μM) (A549). On the procedure: as §1
For a further experiment, the system named is DU4475 cells. Described as above. The arrangement: species or system human. The note with it: Homo sapiens, DU-4475, 72 h, read-out: IC50 (μM) (DU4475). On the procedure: as §1
The next experiment has as its system T47D cells. The experiment is described as above. On the set-up: species or system human. The note with it: Homo sapiens, T47D, 72 h, read-out: IC50 (μM) (T47D). The protocol:
as §1

The subject of a further experiment is HT1197 cells. Briefly: Cell-based assay, anti-proliferative activity, MELK-negative control (Cell Counting Kit-8, 72 hours). The arrangement: species or system human. The note with it: Homo sapiens, HT1197, 72 h, read-out: IC50 (μM) (HTll97). On the procedure:
100 micro-L of cell suspension was seeded onto 96-well microtiter plate (ViewPlate-96FTC, PerkinElmer). The initial cell concentration of 22Rv1, T47D, A549, DU4475, and HT1197 were 3,000 cells/well, 2,000 cells/well and 2,500 cells/well, respectively. Cellular growth was determined using Cell Counting Kit-8 (DOJINDO) at 72 hours after the exposure of the candidate inhibitors. […] Accurate IC50 values were calculated as described previously.

Chain of MELK (Q14680 whole entry, looked up): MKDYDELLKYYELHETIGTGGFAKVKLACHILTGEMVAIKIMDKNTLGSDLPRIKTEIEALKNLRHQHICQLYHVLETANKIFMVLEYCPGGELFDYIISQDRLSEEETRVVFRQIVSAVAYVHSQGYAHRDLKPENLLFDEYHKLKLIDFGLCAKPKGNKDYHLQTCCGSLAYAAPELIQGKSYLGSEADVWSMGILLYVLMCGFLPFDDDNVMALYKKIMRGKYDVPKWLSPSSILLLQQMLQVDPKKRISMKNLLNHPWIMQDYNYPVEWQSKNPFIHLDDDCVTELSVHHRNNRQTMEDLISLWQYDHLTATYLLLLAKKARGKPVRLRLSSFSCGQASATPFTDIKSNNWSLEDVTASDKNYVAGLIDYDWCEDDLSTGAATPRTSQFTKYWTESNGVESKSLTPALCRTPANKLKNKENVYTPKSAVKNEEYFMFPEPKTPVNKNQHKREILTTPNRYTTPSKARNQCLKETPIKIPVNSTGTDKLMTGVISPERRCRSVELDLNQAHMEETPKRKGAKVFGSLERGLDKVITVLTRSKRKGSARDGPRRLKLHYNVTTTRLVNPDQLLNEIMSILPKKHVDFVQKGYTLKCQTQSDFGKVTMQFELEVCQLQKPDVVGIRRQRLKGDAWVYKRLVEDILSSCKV

Regarding `CN(C)C[C@H]1CC[C@H](Nc2c(C(=O)C3CCC3)cnc3ccc(-c4cc(F)c(O)c(Cl)c4)nc23)CC1` [Example 212, (6-(3-chloro-5-fluoro-4-hydroxyphenyl)-4-((4-((dimethylamino)methyl)cyclohexyl)amino)-1,5-naphthyridin-3-yl)(cyclobutyl)methanone dihydrochloride], the IC50 turned out to be 0.0016 µM on MELK; 0.013 µM with 22Rv1 cells; 0.014 µM in the experiment with A549 cells; 0.003 µM with DU4475 cells; 0.0074 µM in the experiment with T47D cells; 0.014 µM in the experiment on HT1197 cells.

In the case of `CCC(=O)c1cnc2ccc(-c3cc(Cl)c(O)c(Cl)c3)nc2c1N[C@H]1CC[C@H](CN(C)C)CC1` [Example 206, 1-[6-(3,5-dichloro-4-hydroxyphenyl)-4-({trans-4-[(dimethylamino)methyl]cyclohexyl}amino)-1,5-naphthyridin-3-yl)]propan-1-one dihydrochloride], the IC50 is 0.0013 µM on MELK; 0.022 µM with 22Rv1 cells; 0.061 µM in the experiment with A549 cells; 0.023 µM with DU4475 cells; 0.01 µM in the experiment with T47D cells; 10 µM in the experiment on HT1197 cells.

Take `CCC(=O)c1cnc2ccc(-c3cc(F)c(O)c(Cl)c3)nc2c1Nc1ccc(N2CCC[C@H](N)C2)nc1` [Example 208, (S)-1-(4{[6-(3-aminopiperidin-1-yl)pyridin-3-yl]amino}-6-(3-chloro-5-fluoro-4-hydroxyphenyl)-1,5-naphthyridin-3-yl)propan-1-one trihydrochloride]: the IC50 at MELK was 0.0026 µM; in the experiment with 22Rv1 cells it was 0.026 µM; in the experiment with A549 cells, 0.063 µM; with DU4475 cells it was 0.021 µM; with T47D cells, 0.015 µM; with HT1197 cells, 0.86 µM.

Regarding `CC(=O)c1cnc2ccc(-c3cc(Cl)c(O)c(Cl)c3)nc2c1Nc1ccc(N2CCC[C@@H](N)C2)nc1` [Example 95, (R)-1-{4-[6-(3-Aminopiperidin-1-yl)pyridin-3-ylamino]-6-(3,5-dichloro-4-hydroxyphenyl)-1,5-naphthyridin-3-yl}ethanone trihydrochloride], the IC50 against MELK turned out to be 0.002 µM; with 22Rv1 cells it was 0.029 µM; in the experiment with A549 cells it was 0.088 µM; in the experiment on DU4475 cells, 0.03 µM; in the experiment on T47D cells, 0.022 µM; in the experiment on HT1197 cells, 1.9 µM.

As for `N[C@@H]1CCCN(c2ccc(Nc3c(C(=O)C4CC4)cnc4ccc(-c5cc(F)c(O)c(Cl)c5)nc34)cn2)C1` [Example 202, (R)-(4-{[6-(3-aminopiperidin-1-yl)pyridin-3-yl]amino}-6-(3-chloro-5-fluoro-4-hydroxyphenyl)-1,5-naphthyridin-3-yl) (cyclopropyl) methanone], the IC50 against MELK turned out to be 0.00046 µM; with 22Rv1 cells, 0.0044 µM; in the experiment with A549 cells it was 0.0054 µM; with DU4475 cells it was 0.001 µM; in the experiment on T47D cells, 0.0038 µM; in the experiment with HT1197 cells, 0.047 µM.

On to `CC(=O)c1cnc2ccc(-c3cc(Cl)c(O)c(Cl)c3)nc2c1Nc1cccc(CCN2CCCC2)c1` [Example 19, 1-[6-(3,5-Dichloro-4-hydroxyphenyl)-4-{3-[2-(pyrrolidin-1-yl)ethyl]phenylamino}-1,5-naphthyridin-3-yl]ethanone dihydrochloride], for which the IC50 on MELK stood at 0.032 µM; with 22Rv1 cells it was 0.63 µM; with A549 cells it was 0.14 µM; in the experiment with DU4475 cells it was 0.11 µM; with T47D cells, 0.59 µM; with HT1197 cells it was 7 µM.

Regarding `CC(=O)c1cnc2ccc(-c3cc(F)c(O)c(Cl)c3)nc2c1N[C@H]1CC[C@H](CN2CCCC2)CC1` [Example 62, 1-(6-(3-Chloro-5-fluoro-4-hydroxyphenyl)-4-{[trans-4-(pyrrolidin-1-ylmethyl)cyclohexyl]amino}-1,5-naphthyridin-3-yl)ethanone dihydrochloride], the IC50 against MELK was 0.0009 µM; with 22Rv1 cells, 0.0073 µM; in the experiment on A549 cells, 0.011 µM; in the experiment with DU4475 cells, 0.0037 µM; with T47D cells, 0.0034 µM; in the experiment on HT1197 cells it was 0.091 µM.

Take `CCC(=O)c1cnc2ccc(-c3cc(Cl)c(O)c(Cl)c3)nc2c1Nc1ccc(N2CCC[C@@H](N)C2)nc1` [Example 214, (R)-1-(4-((6-(3-aminopiperidin-1-yl)pyridin-3-yl)amino)-6-(3,5-dichloro-4-hydroxyphenyl)-1,5-naphthyridin-3-yl)propan-1-one trihydrochloride]: the IC50 worked out at 0.0013 µM against MELK; 0.0059 µM in the experiment on 22Rv1 cells; 0.013 µM with A549 cells; 0.004 µM in the experiment on DU4475 cells; 0.0028 µM in the experiment on T47D cells; 0.34 µM in the experiment on HT1197 cells.

With `CC(=O)c1cnc2ccc(-c3cc(Cl)c(O)c(Cl)c3)nc2c1N[C@H]1CC[C@@H](CN(C)C)CC1` [Example 94, 1-{6-(3,5-Dichloro-4-hydroxyphenyl)-4-({cis-4-[(dimethylamino)methyl]-cyclohexyl}amino)-1,5-naphthyridin-3-yl}ethanone dihydrochloride], the IC50 came to 0.028 µM in the experiment with 22Rv1 cells; 0.039 µM with A549 cells; 0.0073 µM in the experiment with DU4475 cells; 0.02 µM in the experiment with T47D cells; 0.25 µM in the experiment with HT1197 cells.

As to `CC(=O)c1cnc2ccc(-c3cnc(C#N)nc3)nc2c1N[C@H]1CC[C@H](CN(C)C)CC1` [Example 57, 5-(7-Acetyl-8-{trans-4-[(dimethylamino)methyl]cyclohexylamino}-1,5-naphthyridin-2-yl)pyrimidine-2-carbonitrile], the IC50 against MELK is 0.0012 µM; with 22Rv1 cells, 0.24 µM; with A549 cells it was 0.56 µM; with DU4475 cells it was 0.22 µM; with T47D cells it was 0.089 µM; with HT1197 cells, 0.38 µM.

For `CC(=O)c1cnc2ccc(-c3cc(F)c(O)c(Cl)c3)nc2c1NC[C@H]1CC[C@H](N(C)C)CC1` [Example 90, 1-[6-(3-Chloro-5-fluoro-4-hydroxyphenyl)-4-{[trans-4-(dimethylamino)-cyclohexyl]methylamino}-1,5-naphthyridin-3-yl]ethanone dihydrochloride], the IC50 was 0.0024 µM against MELK; 0.052 µM with 22Rv1 cells; 0.12 µM in the experiment on A549 cells; 0.027 µM in the experiment with DU4475 cells; 0.03 µM with T47D cells; 10 µM in the experiment with HT1197 cells.

For the compound `CC(C)C(=O)c1cnc2ccc(-c3cc(F)c(O)c(Cl)c3)nc2c1N[C@H]1CC[C@H](CN(C)C)CC1` [Example 217, dihydrochloride], the IC50 against MELK was 0.0018 µM; with A549 cells, 0.021 µM; in the experiment with HT1197 cells it was 0.055 µM.

For the compound `CC(=O)c1cnc2ccc(-c3cc(F)c(O)c(Cl)c3)nc2c1N[C@H]1CC[C@H](NC(=O)[C@@H]2CCCN2)CC1` [Example 76, (S)—N-{4-[3-Acetyl-6-(3-chloro-5-fluoro-4-hydroxyphenyl)-1,5-naphthyridin-trans-4-ylamino]-cyclohexyl}pyrrolidine-2-carboxamide dihydrochloride], the IC50 was found to be 0.073 µM with 22Rv1 cells; 0.32 µM in the experiment on A549 cells; 0.019 µM with DU4475 cells; 0.03 µM in the experiment on T47D cells; 8.7 µM in the experiment on HT1197 cells.

Consider `CC(C)C(=O)c1cnc2ccc(-c3cc(Cl)c(O)c(Cl)c3)nc2c1N[C@H]1CC[C@H](CN(C)C)CC1` [Example 216, 1-[6-(3,5-dichloro-5-4-hydroxyphenyl)-4-({trans-4-[(dimethylamino)methyl]cyclohexyl}amino)-1,5-naphthyridin-3-yl]-2-methylpropan-1-one dihydrochloride], for which the IC50 against MELK was 0.0019 µM; with A549 cells, 0.012 µM; with HT1197 cells it was 0.025 µM.

In the case of `CC(=O)c1cnc2ccc(-c3cc(Cl)c(O)c(Cl)c3)nc2c1NC[C@H]1CC[C@H](N(C)C)CC1` [Example 89, dihydrochloride], the IC50 was 0.028 µM in the experiment with 22Rv1 cells; 0.041 µM with A549 cells; 0.0063 µM in the experiment with DU4475 cells; 0.023 µM in the experiment with T47D cells; 0.9 µM in the experiment with HT1197 cells.

As to `[2H]C([2H])([2H])N(C[C@H]1CC[C@H](Nc2c(C(C)=O)cnc3ccc(-c4cc(Cl)c(O)c(Cl)c4)nc23)CC1)C([2H])([2H])[2H]` [Example 28, 1-(6-(3,5-Dichloro-4-hydroxyphenyl)-4-(trans-4-((dimethylamino-d6)methyl)-cyclohexylamino)-1,5-naphthyridin-3-yl)ethanone dihydrochloride], the IC50 in the experiment with 22Rv1 cells was determined as 0.0052 µM; in the experiment with A549 cells it was 0.006 µM; in the experiment with DU4475 cells, 0.0022 µM; in the experiment with T47D cells it was 0.004 µM; in the experiment on HT1197 cells, 0.14 µM.
